Measured values reported in patent US20090074761A1, “Therapeutic beta-glucan combinations” (priority 2007, published 2009).

What was measured:
[1] = system: Colo38 tumors; assay: Colo38 xenograft model in ICR SCID mice (FIG. 4C); format: in vivo, mouse; conditions: Colo38 xenograft (membrane-bound VEGF negative)
From the text: (§1) Additional evidence was gathered to show efficacy of in vivo therapy. ICR SCID mice implanted with SKOV-3 cells were compared to ICR SCID mice implanted with Colo38 cells as a control. […] Most of these tumors still retained their sizes before therapy. More importantly, 86% of these mice achieved long-term survival compared with 43% of tumor-bearing mice treated with anti-VEGF mAb only (FIG. 4B).

[2] = system: SKOV-3 tumors; assay: tumor blood vessel development, anti-CD31 staining of tumor sections (FIG. 6); format: in vivo, mouse; conditions: anti-CD31-biotin staining, compared to PBS or β-glucan alone
From the text: To observe tumor blood vessel development after anti-VEGF mAb therapy, the tumor sections were stained with anti-CD31-biotin mAb.

[3] = system: SKOV-3 tumors; assay: SKOV-3 xenograft in ICR SCID mice, i.v. therapy for 4 weeks (FIG. 3); format: in vivo, mouse; conditions: 1.2 mg β-glucan twice weekly, 0.2 mg bevacizumab every third day, i.v. 4 weeks; start 300 mm^3
From the text: After SKOV-3 cell s.c. implantation, tumors were allowed to grow for over 17 days until they were 300 mm^3. […] Mice were sacrificed when the tumors reached 15 mm in diameter.

[4] = system: SKOV-3 tumors; assay: immunohistochemistry of tumor sections: iC3b deposition and neutrophil infiltration (FIG. 5); format: in vivo, mouse; conditions: for neutrophil infiltration in tumors: anti-Gr-1-PE staining of tumor sections; for iC3b deposition in tumors: anti-iC3b-FITC staining of tumor sections
From the text: Interaction between the complement activation product iC3b and the I-domain of CR3 provides the first signal for CR3 priming. Engagement of β-glucan with the lectin-like domain of CR3 is additionally required for the full activation of CR3. The dual ligation of CR3 leads to neutrophil CR3-dependent cellular cytotoxicity (Li et al., J Immunol 177:1661-1669). Neutrophil trafficking within tumors is also critical for successful combined β-glucan with anti-tumor mAb therapy (Allendorf et al., J Immunol 174:7050-7056). Therefore, immunohistochemistry studies were carried out to examine complement activation and neutrophil infiltration within tumors after treatment with different regimens.
First, the tumor sections from four groups were stained with an anti-iC3b-FITC and anti-VEGF-PE mAbs. […] Second, the tumor sections were stained with anti-Gr-1-PE mAb to detect neutrophil infiltration.

[5] = system: SKOV-3 tumors; assay: SKOV-3 xenograft model in ICR SCID mice (FIG. 4A, 4B); format: in vivo, mouse
From the text: as §1

[6] = system: SKOV-3 cells; format: cell-based, human
Description: As described above, β-glucan functions with anti-tumor antibodies to activate complement receptor 3 (CR3) and recruit neutrophils that mediate CR3 (iC3b-receptor)-dependent cytotoxicity of tumors coated with iC3b. […] SKOV-3 cells were incubated with anti-VEGF mAb or anti-Her-2/neu mAb in the presence of human complement. Cells were then washed and co-cultured with human neutrophils (E:T ratio=20:1) in the presence of soluble β-glucan. Cytotoxicity was calculated as in Li et al., J Immunol 177:1661-1669.

[7] = system: MDA-MB-483, HBL-100, Colo38 cells; assay: complement activation (iC3b deposition), flow cytometry, cell lines negative for membrane-bound VEGF; format: cell-based, human; conditions: tumor cell lines negative for membrane-bound VEGF, mouse serum as complement source
Description: Next, the ability of anti-VEGF mAb to bind surface-bound VEGF and activate complement, which leads to iC3b deposition, was examined. SKOV-3 cells were mixed with anti-VEGF mAb in the presence of a 1:4 dilution of mouse serum (complement source). For every one million tumor cells, a 100 μL volume of diluted mouse serum containing 10 μg/mL working dilution of anti-VEGF mAb was used. Tumor cells were mixed and incubated at 37° C. for 30 min. The cells were washed in ice cold flow cytometry staining buffer and the cell pellet was resuspended in […] diluted detecting antibody. The cells were incubated on ice for 30 min. and washed twice. Propidium iodide was used to exclude dead cells. The results of cell lines MDA-MB-483, HBL-100, SKOV-3 and Colo38 are shown in histograms 26, 28, 30 and 32 of FIG. 1C, respectively. Cells incubated with anti-VEGF mAb in the presence of complement and stained with anti-mouse iC3b-FITC mAb are represented by bold lines. Controls included cells incubated with mouse complement (dotted line) or without mouse complement (filled gray) and then stained with anti-mouse iC3b-FITC mAb.

## bevacizumab
[1]
  tumor burden: significantly reduced tumor burden
[2]
  tumor microvessel density: decreased tumor microvessel density
[3]
  tumor size reached: 800±250 mm^3
[4]
  neutrophil infiltration in tumors: significant neutrophil infiltration
  iC3b deposition in tumors: massive iC3b deposition
[5]
  mice achieving long-term survival: 43%
  tumor burden: significantly reduced tumor burden
[6]
  cytotoxicity: 0.2%
[7]
  complement activation (iC3b deposition): negative for complement activation

## poly-(1-6)-β-D-glucopyranosyl-(1-3)-β-D-glucopyranose [β-glucan]
[3]
  tumor size reached: 1500±500 mm^3
[4]
  neutrophil infiltration in tumors: paucity of iC3b deposition and neutrophil infiltration
  iC3b deposition in tumors: no iC3b deposition
[5]
  tumor burden: did not show any significant tumor regression
